Key:
[1] = system: NCI-H358 cells (KRAS G12C mutant cell line); assay: Proliferation experiment of NCI-H358 cells (Cell Titer-Glo); format: cell-based; conditions: Homo sapiens, 72 hours, read-out: Test Example 1 IC50
Description: (§1) According to the solution described in Cell Titer-Glo Luminescent cell Viability Assay (Promega catalog number #G7570) of Promega Corporation, the number of living cells in the culture was detected. 90 μL of cells (8,000 cells/well) were cultured in a growth medium in a Corning black transparent bottom 96-well plate and were cultured overnight in a 5% CO2 humidified incubator at 37° C. The compound diluted serially in 100% DMSO was added to the cells by a pipette, and the cells were cultured for another 72 hours. 100 μL of the well-mixed Cell Titer-Glo reagent was added to the cells in the 96-well culture plate to lyse the cells and gently mixed. Subsequently, […] was detected on an Envision microplate detector, and the data of each compound was obtained. Finally, the data was input into a suitable software package (such as Prism) for curve fitting analysis.

[2] = system: NCI-H23 cells (KRAS G12C mutant cell line); assay: Proliferation experiment of NCI-H23 cells (Cell Titer-Glo); format: cell-based; conditions: Homo sapiens, 72 hours, read-out: Test Example 2 IC50
Description: Human lung cancer cell line NCI-H23 (ATCC, CRL-5800) was a KRAS G12C mutant cell line.
as §1

[3] = molecular target: Ba/F3 (KRAS-G12C-Y96C) cells (Homo sapiens, UniProt P01116, G12C/Y96C, cells depend on it); assay: Proliferation experiment of Ba/F3 (KRAS-G12C-Y96C) cells; format: cell-based; conditions: 72 hours, Cell Titer-Glo, read-out: Test Example 3 IC50
Description: Engineered cell strain Ba/F3 (KRAS-G12C-Y96C) was a cell strain constructed by the inventors according to the methods described in Warmuth M. et al, Curr Opin Oncol. […] The cells were grown at 37° C. in a humidified incubator with […].
as §1, with “(3,000” for “(8,000”, “[…]” for “5%”

[4] = molecular target: Ba/F3 (KRAS-G12C-H95Q) cells (Homo sapiens, UniProt P01116, G12C/H95Q, cells depend on it); assay: Proliferation experiment of Ba/F3 (KRAS-G12C-H95Q) cells; format: cell-based; conditions: 72 hours, Cell Titer-Glo, read-out: Test Example 4 IC50
Description: Engineered cell strain Ba/F3 (KRAS-G12C-H95Q) was a cell strain constructed by the inventors according to the methods described in Warmuth M. et al, Curr Opin Oncol. […] The cells were grown at 37° C. in a humidified incubator with […].
as §1, with “(3,000” for “(8,000”

[5] = molecular target: Ba/F3 (KRAS-G12C-R68S) cells (Homo sapiens, UniProt P01116, G12C/R68S, cells depend on it); assay: Proliferation experiment of Ba/F3 (KRAS-G12C-R68S) cells; format: cell-based; conditions: 72 hours, Cell Titer-Glo, read-out: Test Example 5 IC50
Description: Engineered cell strain Ba/F3 (KRAS-G12C-R68S) was a cell strain constructed by the inventors according to the methods described in Warmuth M. et al, Curr Opin Oncol. […] The cells were grown at 37° C. in a humidified incubator with 5% CO2.
as §1, with “(3,000” for “(8,000”

[6] = molecular target: Ba/F3 (KRAS-G12C-Q99L) cells (Homo sapiens, UniProt P01116, G12C/Q99L, cells depend on it); assay: Proliferation experiment of Ba/F3 (KRAS-G12C-Q99L) cells; format: cell-based; conditions: 72 hours, Cell Titer-Glo, read-out: Test Example 6 IC50
Description: Engineered cell strain Ba/F3 (KRAS-G12C-Q99L) was a cell strain constructed by the inventors according to the methods described in Warmuth M. et al, Curr Opin Oncol. […] The cells were grown at 37° C. in a humidified incubator with 5% CO2.
as §1, with “(3,000” for “(8,000”

[7] = In vitro human liver microsome stability experiment; format: in vitro ADME; conditions: human liver microsomes; for half-life / microsomal CLint: 1 mg/mL microsome protein, NADPH, 37° C.; for microsomal CLint: read-out: CLint(mic); for CLint scaled: scaled to liver
Description: Eight 96-well incubation plates were prepared, named [NT], Blank60, and NCF60, respectively. […] No compound to be tested or control compound was added to the Blank60 plate and samples were taken after 60 minutes of incubation. The NCF60 plate, in which a potassium phosphate buffer was used instead of an NADPH regeneration system solution (Sigma, N0505), was incubated for 60 minutes. […] Only the working solution of microsomes was added to the Blank60 plate, and the incubation plates Blank60, T5, T15, T30, T45, and T60 except TO and NCF60 were then placed in a water bath at 37° C. for pre-incubation for about 10 minutes. To the TO plate sample, 600 μL of a stop solution (acetonitrile:methanol (95:5, v/v) solution containing 100 ng/mL tolbutamide (Sigma, T0891)) was added first, and then an NADPH regeneration system working solution was added. 98 μL of a potassium phosphate buffer was added to each well of the NCF60 plate and incubated for 60 minutes. After the pre-incubation in the incubation plates Blank60, T5, T15, T30, T45, and T60 was complete, 98 μL of the NADPH regeneration system working solution was added to each sample well to initiate the reaction. After an appropriate incubation time (such as 5, 15, 30, 45, and 60 minutes), 600 μL of the stop solution was added to each sample well and control sample well in the Blank60, […] the reaction. All the sample plates were shaken evenly and centrifuged at 3220×g for 20 minutes. 200 μL of each test sample supernatant was taken and diluted into 200 μL of an aqueous solution containing 0.3% formic acid for LC-MS/MS analysis, and 100 μL of the control sample supernatant was taken and diluted into 300 μL of pure water for LC-MS/MS analysis. Calculations were carried out according to the following formulas: […]

Sequence of Ba/F3 (KRAS-G12C-Y96C) cells (P01116 whole entry G12C/Y96C): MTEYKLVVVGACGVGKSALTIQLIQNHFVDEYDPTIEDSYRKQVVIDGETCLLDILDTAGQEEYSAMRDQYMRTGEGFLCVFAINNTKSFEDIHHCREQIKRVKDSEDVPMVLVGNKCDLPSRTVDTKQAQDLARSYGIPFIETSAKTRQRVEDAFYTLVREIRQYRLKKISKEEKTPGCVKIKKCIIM
Sequence of Ba/F3 (KRAS-G12C-R68S) cells (P01116 whole entry G12C/R68S): as the sequence (P01116 whole entry G12C/Y96C) above, with R68S, C96Y counted along it
Sequence of Ba/F3 (KRAS-G12C-H95Q) cells (P01116 whole entry G12C/H95Q): as the sequence (P01116 whole entry G12C/Y96C) above, with H95Q, C96Y counted along it
Sequence of Ba/F3 (KRAS-G12C-Q99L) cells (P01116 whole entry G12C/Q99L): as the sequence (P01116 whole entry G12C/Y96C) above, with C96Y, Q99L counted along it

Structure (SMILES)	IC50 [1] [nM]	IC50 [2] [nM]	GI50 [3] [nM]	GI50 [4] [nM]	GI50 [5] [nM]	GI50 [6] [nM]	half-life [7] [min]	microsomal CLint [7] [µL/min/mg]	CLint scaled [7] [mL/min/kg]
C=C(F)C(=O)N1CCN(c2nc(OC[C@@]34CCCN3C[C@H](F)C4)nc3c(F)c(-c4cc(O)cc5cccc(Cl)c45)ccc23)C[C@@H]1CC#N [Compound 2]	0.22	0.65	18.9	70.1	93.9	130	18.8	73.7	66.3
C#Cc1c(F)ccc2cc(O)cc(-c3ccc4c(N5CCN(C(=O)C(=C)F)[C@@H](CC#N)C5)nc(OC[C@@]56CCCN5C[C@H](F)C6)nc4c3F)c12 [Compound 4]	0.44	1.15	5.2	39.4	50.6	9.06	25.5	54.3	48.9
C=C(F)C(=O)N1CCN(c2nc(OC[C@@]34CCCN3C[C@H](F)C4)nc3c(F)c(-c4cccc5cccc(Cl)c45)ccc23)C[C@@H]1CC#N [Compound 5]	1.58	1.27	473	709	929	589	–	–	–
C=C(F)C(=O)N1CCN(c2nc(OCC34CCCN3CCC4)nc3c(F)c(-c4cccc5cccc(Cl)c45)c(F)cc23)C[C@@H]1CC#N [Compound 6A, 2-((2S)-4-(7-(8-chloronaphth-1-yl)-6,8-difluoro-2-((tetrahydro-1H-pyrrolizin-7a(5H)-yl)methoxy)quinazolin-4-yl)-1-(2-fluoroacryloyl)piperazin-2-yl)acetonitrile]	1.83	1.44	525	689	863	779	–	–	–
C=C(F)C(=O)N1CCN(c2nc(OCC34CCCN3CCC4)nc3c(F)c(-c4cccc5cccc(Cl)c45)ccc23)C[C@@H]1CC#N [Compound 17, (S)-2-(4-(7-(8-chloronaphth-1-yl)-8-fluoro-2-((tetrahydro-1H-pyrrolizin-7a(5H)-yl)methoxy)quinazolin-4-yl)-1-(2-fluoroacryloyl)piperazin-2-yl)acetonitrile]	0.6	0.53	–	–	–	–	–	–	–
C#Cc1c(F)ccc2cccc(-c3c(F)cc4c(N5CCN(C(=O)C(=C)F)[C@@H](CC#N)C5)nc(OCC56CCCN5CCC6)nc4c3F)c12 [Compound 19B, 2-((2S)-4-(7-(8-ethynyl-7-fluoronaphth-1-yl)-6,8-difluoro-2-((tetrahydro-1H-pyrrolizin-7a(5H)-yl)methoxy)quinazolin-4-yl)-1-(2-fluoroacryloyl)piperazin-2-yl)acetonitrile]	0.47	1.71	–	–	–	–	24.5	56.5	50.9
C#Cc1ccc2cccc(-c3c(F)cc4c(N5CCN(C(=O)C(=C)F)[C@@H](CC#N)C5)nc(OCC56CCCN5CCC6)nc4c3F)c2c1 [Compound 25, 2-((2S)-4-(7-(7-ethynylnaphth-1-yl)-6,8-difluoro-2-((tetrahydro-1H-pyrrolizin-7a(5H)-yl)methoxy)quinazolin-4-yl)-1-(2-fluoroacryloyl)piperazin-2-yl)acetonitrile]	–	–	> 5000	> 5000	> 5000	> 5000	–	–	–
C#Cc1cc(-c2c(F)cc3c(N4CCN(C(=O)C(=C)F)[C@@H](CC#N)C4)nc(OCC45CCCN4CCC5)nc3c2F)c2ccccc2c1 [Compound 26, 2-((2S)-4-(7-(3-ethynylnaphth-1-yl)-6,8-difluoro-2-((tetrahydro-1H-pyrrolizin-7a(5H)-yl)methoxy)quinazolin-4-yl)-1-(2-fluoroacryloyl)piperazin-2-yl)acetonitrile]	–	–	> 5000	> 5000	> 5000	> 5000	–	–	–
C#Cc1cccc2c(-c3c(F)cc4c(N5CCN(C(=O)C(=C)F)[C@@H](CC#N)C5)nc(OCC56CCCN5CCC6)nc4c3F)cccc12 [Compound 27, 2-((2S)-4-(7-(5-ethynylnaphth-1-yl)-6,8-difluoro-2-((tetrahydro-1H-pyrrolizin-7a(5H)-yl)methoxy)quinazolin-4-yl)-1-(2-fluoroacryloyl)piperazin-2-yl)acetonitrile]	–	–	> 5000	> 5000	> 5000	> 5000	–	–	–
C=C(F)C(=O)N1CCN(c2nc(OCC34CCCN3CCC4)nc3c(F)c(-c4cc(O)cc5c(Cl)cccc45)ccc23)C[C@@H]1CC#N [Compound 28, (S)-2-(4-(7-(5-chloro-3-hydroxynaphth-1-yl)-8-fluoro-2-((tetrahydro-1H-pyrrolizin-7a(5H)-yl)methoxy)quinazolin-4-yl)-1-(2-fluoroacryloyl)piperazin-2-yl)acetonitrile]	–	–	> 5000	> 5000	> 5000	> 5000	–	–	–
C=C(F)C(=O)N1CCN(c2nc(OCC34CCCN3CCC4)nc3c(F)c(-c4cc(O)cc5ccc(Cl)cc45)ccc23)C[C@@H]1CC#N [Compound 29, (S)-2-(4-(7-(7-chloro-3-hydroxynaphth-1-yl)-8-fluoro-2-((tetrahydro-1H-pyrrolizin-7a(5H)-yl)methoxy)quinazolin-4-yl)-1-(2-fluoroacryloyl)piperazin-2-yl)acetonitrile]	–	–	> 5000	> 5000	> 5000	> 5000	–	–	–

— patent US20250154156A1, “QUINAZOLINE DERIVATIVE AS KRAS G12C MUTATION INHIBITOR” (Shenzhen Forward Pharmaceuticals Co., Limited, priority 2022, published 2025)
